Source: patent publication US8580321B2, “Method for reducing the effects of chemotherapy using flagellin related polypeptides” (priority 2003, dated 2013)

Experiments:
NF-κB [1] = test: EMSA of NF-κB translocation / DNA binding in A549 cells; conditions: for NF-κB Stimulation / level of NF-κB translocation, fragments versus flagellin: A549 cells; for NF-κB Stimulation: 1 μg/ml, 45 min, EMSA of whole cell extracts; for level of NF-κB translocation, fragments versus flagellin / inducing NF-κB translocation: EMSA; for inducing NF-κB translocation: nuclear extracts of treated A549 lung cancer cells
NF-κB [2] = test: EMSA of NF-κB binding activity in HT29 human colon cancer cells; assay type: cell-based; conditions: fragments 1 mg/ml, 15 min
Description: We further minimized the AA′ flagellin fragment by producing additional fragments through stepwise removal of peptide fragments from its N-terminal half (Table 2). […] NF-κB binding activity in HT29 cells was stimulated with TNFa (10 ng/ml), or flagellin fragments (1 mg/ml) for 15 min.

[3] = tested on: mice treated with total body gamma radiation; test: Mouse survival after total body gamma irradiation (radioprotection); assay type: in vivo; conditions: s.c. 5.0 μg/mouse (0.2 mg/kg)
Description: Whole body irradiation of mice with 15 Gy gamma radiation caused death within 8 days from GI syndrome providing a conventional model of radiation induced damage of GI tract. To test whether flagellin was capable of protecting GI epithelium from IR, we tested the effect of i.v.-injected flagellin on the dynamics of mouse lethality after 15 Gy of radiation. […] Irradiation was done 4 hours post treatment. As expected, control irradiated mice (that received PBS i.v.) died between 5 and 8 days post-treatment. […] Intravenous, intraperitoneal and subcutaneous delivery of 0.2 mg/kg of flagellin followed by 13 Gy irradiation afforded similar degree of protection, leading to 85-90% 30-day survival of mice (data not shown). While not being bound by theory, flagellin may be a radioprotectant due to its activation of NF-κB, which presumably acts as an inhibitor of apoptotic death.
The experiments were done similarly to the above-described ones (FIGS. 14 and 15), however, instead of 15Gy, mice received 10Gy, the dose that caused 100% killing in control group by day 13 (FIG. 6).
In order to further estimate the dependence of radioprotective activity of flagellin on the time of treatment, mice were injected at several time points relative to the moment of gamma-irradiation. Experiments were performed essentially as explained above, using intraperitoneal injection of 5 μg/mouse (0.2 mg/kg) of full-length flagellin or, for control mice, 5 μg/mouse (0.2 mg/kg) of bacterial RNA polymerase. The experiments were performed using the NIH-Swiss mouse strain. […] Only −1 h graph is shown for clarity, however, both timepoints (−1 and −2 h) provide similar degree and dynamics of survival.
We next obtained an estimate of radiation dose-dependent protection for flagellin. As shown above (FIG. 7), treatment with flagellin was sufficient for 100% protection against 10 Gy gamma-irradiation (this dose causes death from hematopoietic syndrome) and 90% 30-day survival at 13 Gy (both hematopoietic and GI syndromes). Experiments were performed as described above, using flagellin 5 μg/mouse (0.2 mg/kg), intraperitoneally injected 1 h before irradiation.
As shown above, full-length flagellin provides protection from both hematopoietic and gastrointestinal syndromes. The radioprotective potential of flagellin fragments was similarly tested after gamma-irradiation with 11 Gy (dose that induces hematopoietic syndrome-associated mortality in mice) or 14 Gy (dose that causes death from GI syndrome). Mice (10 animals per group) were injected subcutaneously with 5.0 μg/mouse (0.2 mg/kg) of flagellin or its fragments, AA′ or BB′, and gamma-irradiated 1 hour later.
In order to explore the limits of radioprotection provided by the AA′ fragment, we irradiated mice with 17 Gy and 20 Gy single doses of total body gamma-radiation.
We tested the ability of AA′ to protect mice that were exposed to it. A group of 20 NIH-Swiss mice were subcutaneously injected with 5 μg/mouse (0.2 mg/kg) of AA′. A second injection of a equal dose of AA′ was administered after 21 (10 mice) and 28 days (another 10 mice), with the time elapsed being sufficient for formation of antibodies. The second injection of AA′ was followed by 13 Gy of whole-body gamma irradiation (1 h post-injection).
Repetitive irradiation within a short period of time may be common, for example, in space radiation events and in clinical radiotherapy regimens. We tested the ability of the AA′ flagellin fragment to protect mice from sub-lethal (4 treatments of 3 Gy) and 100% lethal (4 treatments of 4 Gy) regimens of fractionated gamma-irradiation. Fragment AA′ or saline buffer was given to NIH-Swiss female mice before every irradiation (once a day for 4 days). AA′ was administered as described above for single-dose irradiation (5 μg/mouse, given subcutaneously 1 h before irradiation). […]
We have extensively confirmed that AA′ protects NIH-Swiss and ICR mice from radiation. […]

## AA′n1-70: flagellin variant N-terminal 1-70, C-terminal 402-505, SEQ ID NO: 54
NF-κB [1]
  NF-κB Stimulation: No

## AA′n1-129: flagellin variant N-terminal 1-129, C-terminal 402-505, SEQ ID NO: 42
NF-κB [1]
  NF-κB Stimulation: Yes

## AA′n1-163: (1-163)-Linker-(402-505), SEQ ID NO: 34
NF-κB [2]
  induction of NF-κB translocation: induce NF-κB translocation
  level of NF-κB translocation relative to flagellin: comparable to that of flagellin
NF-κB [1]
  NF-κB Stimulation: Yes

## AA′n54-129: flagellin variant N-terminal 54-129, C-terminal 402-505, SEQ ID NO: 44
NF-κB [1]
  NF-κB Stimulation: Yes

## AA′n54-163: (54-163)-Linker-(402-505), SEQ ID NO: 36
NF-κB [2]
  induction of NF-κB translocation: induce NF-κB translocation
NF-κB [1]
  NF-κB Stimulation: Yes

## AA′n54-170: (54-170)-Linker-(402-505), SEQ ID NO: 32
NF-κB [2]
  induction of NF-κB translocation: induce NF-κB translocation
  level of NF-κB translocation relative to flagellin: comparable to that of flagellin
NF-κB [1]
  NF-κB Stimulation: Yes

## BA′: flagellin fragment (56-177)-Linker-(402-505), SEQ ID NO: 12
NF-κB [1]
  NF-κB Stimulation: Yes
  level of NF-κB translocation, fragments versus flagellin: comparable
  inducing NF-κB translocation: capable of inducing NF-κB translocation

## CA′: flagellin fragment (56-100)-Linker-(402-505), SEQ ID NO: 16
NF-κB [1]
  NF-κB Stimulation: No

## GST-A′: GST-Linker-(402-505), SEQ ID NO: 26
NF-κB [1]
  NF-κB Stimulation: No

B1: BB′: flagellin fragment (56-177)-Linker-(402-450), SEQ ID NO: 14 (protein)
chain: MRGSHHHHHHGMASMTGGQQMGRDLYDDDDKDPFTSNIKGLTQASRNANDGISIAQTTEGALNEINNNLQRVRELSVQATNGTNSDSDLKSIQDEIQQRLEEIDRVSNQTQFNGVKVLSQDNQMKIQVGANDGETITIDLQKIDVKSLGLDGFNVNSPGISGGGGGILDSMGTLINEDAAAAKKSTANPLASIDSALSKVDAVRSSLGAIQNRFDSAITNL
modifications: Salmonella dublin
[3]; 1 hour before 11 Gy
  30-day survival, 11 Gy: 0%
[3]; 1 hour before 14 Gy
  30-day survival, 14 Gy: 0%
NF-κB [1]
  NF-κB Stimulation: No

B2: B: flagellin N-terminus (56-177), SEQ ID NO: 22 (protein)
chain: MRGSHHHHHHGMASMTGGQQMGRDLYDDDDKDPFTSNIKGLTQASRNANDGISIAQTTEGALNEINNNLQRVRELSVQATNGTNSDSDLKSIQDEIQQRLEEIDRVSNQTQFNGVKVLSQDNQMKIQVGANDGETITIDLQKIDVKSLGLDGFNVNSPG
modifications: Salmonella dublin
NF-κB [1]
  NF-κB Stimulation: No

B3: AB′n1-70: flagellin variant N-terminal 1-70, C-terminal 402-450, SEQ ID NO: 56 (protein)
chain: MRGSHHHHHHGMASMTGGQQMGRDLYDDDDKDPMAQVINTNSLSLLTQNNLNKSQSSLSSAIERLSSGLRINSAKDDAAGQAIANRFTSNIKGLTQASRNANDIPGISGGGGGILDSMGTLINEDAAAAKKSTANPLASIDSALSKVDAVRSSLGAIQNRFDSAITNL
modifications: Salmonella dublin
NF-κB [1]
  NF-κB Stimulation: No

B4: AB′n1-170: flagellin variant N-terminal 1-170, C-terminal 402-450, SEQ ID NO: 38 (protein)
chain: MRGSHHHHHHGMASMTGGQQMGRDLYDDDDKDPMAQVINTNSLSLLTQNNLNKSQSSLSSAIERLSSGLRINSAKDDAAGQAIANRFTSNIKGLTQASRNANDGISIAQTTEGALNEINNNLQRVRELSVQATNGTNSDSDLKSIQDEIQQRLEEIDRVSNQTQFNGVKVLSQDNQMKIQVGANDGETITIDLQKIDVKSLGLIPGISGGGGGILDSMGTLINEDAAAAKKSTANPLASIDSALSKVDAVRSSLGAIQNRFDSAITNL
modifications: Salmonella dublin
NF-κB [1]
  NF-κB Stimulation: Yes

B5: C: flagellin N-terminus (56-100), SEQ ID NO: 24 (protein)
chain: MRGSHHHHHHGMASMTGGQQMGRDLYDDDDKDPFTSNIKGLTQASRNANDGISIAQTTEGALNEINNNLQRVRELSVQATSPG
modifications: Salmonella dublin
NF-κB [1]
  NF-κB Stimulation: No

B6: A: flagellin N-terminus (1-177), SEQ ID NO: 20 (protein)
chain: MRGSHHHHHHGMASMTGGQQMGRDLYDDDDKDPMAQVINTNSLSLLTQNNLNKSQSSLSSAIERLSSGLRINSAKDDAAGQAIANRFTSNIKGLTQASRNANDGISIAQTTEGALNEINNNLQRVRELSVQATNGTNSDSDLKSIQDEIQQRLEEIDRVSNQTQFNGVKVLSQDNQMKIQVGANDGETITIDLQKIDVKSLGLDGFNVNSPG
modifications: Salmonella dublin
NF-κB [1]
  NF-κB Stimulation: No

B7: AB′: flagellin fragment (1-177)-Linker-(402-450), SEQ ID NO: 10 (protein)
chain: MRGSHHHHHHGMASMTGGQQMGRDLYDDDDKDPMAQVINTNSLSLLTQNNLNKSQSSLSSAIERLSSGLRINSAKDDAAGQAIANRFTSNIKGLTQASRNANDGISIAQTTEGALNEINNNLQRVRELSVQATNGTNSDSDLKSIQDEIQQRLEEIDRVSNQTQFNGVKVLSQDNQMKIQVGANDGETITIDLQKIDVKSLGLDGFNVNSPGISGGGGGILDSMGTLINEDAAAAKKSTANPLASIDSALSKVDAVRSSLGAIQNRFDSAITNL
modifications: Salmonella dublin
NF-κB [1]
  NF-κB Stimulation: Yes
  level of NF-κB translocation, fragments versus flagellin: comparable
  inducing NF-κB translocation: capable of inducing NF-κB translocation

B8: AB′n1-163: flagellin variant N-terminal 1-163, C-terminal 402-450, SEQ ID NO: 40 (protein)
chain: MRGSHHHHHHGMASMTGGQQMGRDLYDDDDKDPMAQVINTNSLSLLTQNNLNKSQSSLSSAIERLSSGLRINSAKDDAAGQAIANRFTSNIKGLTQASRNANDGISIAQTTEGALNEINNNLQRVRELSVQATNGTNSDSDLKSIQDEIQQRLEEIDRVSNQTQFNGVKVLSQDNQMKIQVGANDGETITIDLQKIIPGISGGGGGILDSMGTLINEDAAAAKKSTANPLASIDSALSKVDAVRSSLGAIQNRFDSAITNL
modifications: Salmonella dublin
NF-κB [1]
  NF-κB Stimulation: Yes

B9: CB′: flagellin fragment (56-100)-Linker-(402-450), SEQ ID NO: 18 (protein)
chain: MRGSHHHHHHGMASMTGGQQMGRDLYDDDDKDPFTSNIKGLTQASRNANDGISIAQTTEGALNEINNNLQRVRELSVQATSPGISGGGGGILDSMGTLINEDAAAAKKSTANPLASIDSALSKVDAVRSSLGAIQNRFDSAITNL
modifications: Salmonella dublin
NF-κB [1]
  NF-κB Stimulation: No
